Values after ≈ are worked out from the molar mass of the structure shown. Where two headings read alike, the source gives them in different places.
Tests used:
[1] = system: Meerschweinchen-Vorhof; test: Electrically stimulated left atrium, contractile force; details: contractile force of electrically stimulated left atrium, recorded 7 to 10 min
From the text: 2. Elektrisch stimulierter linker Vorhof
Es wird ein Meerschweinchen männlichen oder weiblichen Geschlechts mit einem Gewicht von 400 g getötet, das Herz entnommen und bei Zimmertemperatur in Ringerlösung eingebracht. Dann wird der linke Vorhof isoliert, an einem Organhalter befestigt und das Präparat in ein Organbad mit Ringerlösung von Zimmertemperatur gebracht. In das Organbad wird ein lebhafter Strom eines Gemisches von Kohlendioxid und Sauerstoff (95 % 02 und 5 % C02) geleitet. Dann wird der linke Vorhof elektrisch stimuliert. Anschließend wird aus einer der erfindungsgemäßen Verbindungen oder ih- rem Salz gegebenenfalls unter Verwendung von stöchiometrischer wäßriger 0,1 n HC1-Lösung eine wäßrige Lösung bekannter Konzentrationen hergestellt.
Diese Lösung wird dem Bad zugesetzt und die Kontraktionskraft des Vorhofes 7 bis 10 Minuten lang auf einem 4-Kanal-Kohden-Rekorder registriert. Die Wirkung wird aus den ermittelten Daten als EC50 berechnet angegeben.

[2] = system: Narkotisierter Hund; test: In vivo test in the anaesthetised dog (left ventricular dp/dt max); design: species or system Beagle-Hunde; details: Canis lupus familiaris, iv; injected into the femoral vein, pentobarbital anaesthesia
Experimental: 3. In vivo-Tests am narkotisierten Hund
Beagle-Hunde beiderlei Geschlechts mit einem Gewicht zwischen 10 und 15 kg werden mit Na-Pentobarbitol (35 mg/kg, i.v.) narkotisiert. Nach Einführen eines Endotrachealtubus werden die Femoralarterie und -vene mit einer Kanüle zur Messung des Blutdrucks bzw. zur Verabreichung von Medikamenten versehen. Der Druck des linken Ventrikels wird mit Hilfe eines Millar-Katheters gemessen und dp/dt max wird berechnet mit einem Hugo-Sachs-Differentiometer. Die Herzfrequenz wird mit Hilfe eines Kardiotachometers aus ECG-Signalen bestimmt. Alle kontinuierlich gemessenen Parameter werden mit einem Hellige-Sechs-Kanal-Recorder aufgezeichnet.
Die zu untersuchenden erfindungsgemäßen Verbindungen werden in destilliertem Wasser gelöst. In allen Experimenten werden 1%ige Lösungen verwendet. Die Lösungen werden in die Femoralvene injiziert und die Dosis-Wirkung-Relation berechnet.

[3] = system: Isoliertes Meerschweinchenherz; test: Isolated guinea pig heart (Langendorff method); design: species or system Meerschweinchen; details: Cavia porcellus; for activation at 0.01 mg: Dosis 10 µg injected into the aorta; for activation at 0.03 mg: Dosis 30 µg injected into the aorta
From the text: 1. Isoliertes Meerschweinchenherz (Langendorff-Methode)
Es wird ein Meerschweinchen männlichen oder weiblichen Geschlechts mit einem Gewicht zwischen 300 und 400 g getötet und das Herz mit einem kleinen Teil der Aorta entnommen. Das Herz wird umgehend in einen Perfusionsapparat gebracht, in dem die Aorta auf der Glaskanüle fixiert wird. Die aus oxygenierter Ringerlösung bestehende Perfusionslösung wird bei konstantem Druck aus dem Behälter zugeführt, der durch aus dem Thermostat zirkulierendes Wasser auf 37°C angewärmt wird. Die zu untersuchenden Verbindungen der Erfindung werden zur Herstellung einer Lösung mit bekannter Konzentration unter Verwendung stöchiometrischer 0,1 n HC1 bzw. deren Salze direkt in Wasser gelöst. Die erhaltene Lösung wird durch eine Polyäthylenkanüle direkt in die Aorta injiziert und die Wirkungen auf die Kontraktionskraft, Herzfrequenz und Koronardurchblutung auf einem 3-Kanal-Physioscribe-Rekorder aufgezeichnet. Die prozentuale Zu- oder Abnahme der inotropen Wirkung wird nach dem intialen Ausgangswert berechnet.

[4] = system: Augeninnendruck (IOP); test: Intraocular pressure in the conscious rabbit; assay type: in vivo, Kaninchen; details: Dosis 1 %
From the text: Messung des Augeninnendruckes am wachen Kaninchen
Für die Untersuchung wird ein männliches oder weibliches Kaninchen mit einem Gewicht von 2 bis 3 k^g ausgewählt. Der Augeninnendruck (IOP) wird nach vorheriger Hornhautanästhesie mit 2 % Novocain-Lösung mit einem Schioetz-Tonometer gemessen. Zur Herstellung einer 2 %igen wäßrigen Lösung wird eine Verbindung der Formel I unter Verwendung von stöchiometrischer wäßriger 0,1 n HCI-Lösung oder ein Salz einer solchen Verbindung direkt in Wasser gelöst. […] Der IOP wird in Abständen von 0,5, 1, 2, 3, 4 und 5 Stunden gemessen. Die prozentuale Abnahme des IOP wird anhand des Ausgangswertes berechnet.

[5] = read-out: % Zunahme der Chronotropen Wirkung
[6] = read-out: % Zunahme der Koronardurchblutung
[7] = relative to initial baseline, read-out: % Zunahme der Inotropen Wirkung

Row | SMILES | EC50 [1] | also measured
1 | C=C[C@@]1(C)CC(=O)[C@]2(O)[C@@]3(C)[C@@H](O)CCC(C)(C)[C@@H]3[C@H](O)[C@H](OC(=O)CCN3C(=O)c4ccccc4C3=O)[C@@]2(C)O1 | > 3 µg/mL | 
2 | C=C[C@@]1(C)CC(=O)[C@]2(O)[C@@]3(C)[C@@H](O)CCC(C)(C)[C@@H]3[C@H](O)[C@H](OC(=O)CN3CCCC(C)C3)[C@@]2(C)O1 (stereo partly drawn) | 30 µg/mL (≈ 59.1 µM) | 
3 | C=C[C@@]1(C)CC(=O)[C@]2(O)[C@@]3(C)[C@@H](O)CCC(C)(C)[C@@H]3[C@H](OC(=O)CN3CCC(NC(=O)c4ccccc4)CC3)[C@H](O)[C@@]2(C)O1 | 1.2 µg/mL (≈ 1.96 µM) | 
4 | C=CC1(C)CC(=O)C2(O)C(C)(O1)C(OC(=O)Cn1nnc3ccccc31)C(O)C1C(C)(C)CCC(O)C12C (stereo not drawn) | > 30 µg/mL | 
5 | C=CC1(C)CC(=O)C2(O)C(C)(O1)C(OC(=O)C(C)n1cnc3c1c(=O)n(C)c(=O)n3C)C(O)C1C(C)(C)CCC(O)C12C (stereo not drawn) | 0.9 µg/mL (≈ 1.49 µM) | 
6 | C=CC1(C)CC(=O)C2(O)C(C)(O1)C(OC(=O)CCCCN1CCCCC1)C(O)C1C(C)(C)CCC(O)C12C (stereo not drawn) | 30 µg/mL (≈ 56 µM) | 
7 | C=CC1(C)CC(=O)C2(O)C(C)(O1)C(O)C(OC(=O)CCCCN1CCCCC1)C1C(C)(C)CCC(O)C12C (stereo not drawn) [the 5th table, row 7] |  | Senkung des IOP ([4]; percent decrease from baseline): 23%; Dauer ([4]; duration of the IOP-lowering effect): 6 Std.

The next lines start with results.

Row | EC50 [1] | SMILES | also measured
8 | 30 µg/mL (≈ 56 µM) | C=CC1(C)CC(=O)C2(O)C(C)(O1)C(O)C(OC(=O)CCCCN1CCCCC1)C1C(C)(C)CCC(O)C12C (stereo not drawn) [the 4th table, row 5] | 
9 | 2.6 µg/mL (≈ 5.12 µM) | C=C[C@@]1(C)CC(=O)[C@]2(O)[C@@]3(C)[C@@H](O)CCC(C)(C)[C@@H]3[C@H](OC(=O)CN3CCC(C)CC3)[C@H](O)[C@@]2(C)O1 | ED50 [2]: 0.39 mg/kg
10 | 3 µg/mL (≈ 6.26 µM) | C=C[C@@]1(C)CC(=O)[C@]2(O)[C@@]3(C)[C@@H](O)CCC(C)(C)[C@@H]3[C@H](OC(=O)CN3CCCC3)[C@H](O)[C@@]2(C)O1 | 
11 | 1.5 µg/mL (≈ 2.93 µM) | C=C[C@@]1(C)CC(=O)[C@]2(O)[C@@]3(C)[C@@H](O)CCC(C)(C)[C@@H]3[C@H](OC(=O)CN3CCSCC3)[C@H](O)[C@@]2(C)O1 | ED50 [2]: > 3 mg/kg
12 | 2.3 µg/mL (≈ 4.66 µM) | C=C[C@@]1(C)CC(=O)[C@]2(O)[C@@]3(C)[C@@H](O)CCC(C)(C)[C@@H]3[C@H](OC(=O)CN3CCCCC3)[C@H](O)[C@@]2(C)O1 | activation at 0.01 mg [3, 5]: 27%; activation at 0.01 mg [3, 6]: 40%; activation at 0.01 mg [3, 7]: 32%
13 | 30 µg/mL (≈ 58.6 µM) | C=C[C@@]1(C)CC(=O)[C@]2(O)[C@@]3(C)[C@@H](O)CCC(C)(C)[C@@H]3[C@H](O)[C@H](OC(=O)CN3CCSCC3)[C@@]2(C)O1 | 
14 | 0.5 µg/mL (≈ 1.01 µM) | C=C[C@@]1(C)CC(=O)[C@]2(O)[C@@]3(C)[C@@H](O)CCC(C)(C)[C@@H]3[C@H](OC(=O)CN3CCOCC3)[C@H](O)[C@@]2(C)O1 | ED50 [2]: 0.11 mg/kg; activation at 0.03 mg [3, 5]: 34%; activation at 0.03 mg [3, 6]: 35%; activation at 0.03 mg [3, 7]: 23%

Source: EP0217372A2, “Polyoxygenated labdane derivatives, process for their preparation and their use as medicaments” (HOECHST AKTIENGESELLSCHAFT, priority 1985, dated 1987)
